Experiment [1] has as its system HCC827 NSCLC cell with EGFR exon 19 deletion mutation. Put plainly: HCC827 cell proliferation assay (counter screen). It counts as cell-based, human. The conditions noted are these: Homo sapiens, HCC827 cells, 72 hours treatment, CellTiter96, read-out: anti-proliferation activity HCC827 EGFR Exon19 del, IC50 ranking. The gist of the method:
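HCC827 cells (EGFR exon 19 deletion) were seeded at 8000 cells/well in RPMI1640 with 10% FBS, then exposed to increasing compound concentrations for 72 h at 37 °C. Viability was read by CellTiter96 AQueous One (MTS), absorbance 490 nm after 2–4 h.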

The subject of experiment [2] is Molm-14 human acute myeloid leukemia cell with FLT3-ITD mutation. Put plainly: Molm-14 cell proliferation assay (CellTiter 96). The experiment is classed as cell-based. The conditions noted are these: Homo sapiens; Molm-14 cells, 72 hours treatment, CellTiter96; read-out: anti-proliferation activity Molm-14 (FLT3-ITD), IC50 ranking. The gist of the method:
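Molm-14 (FLT3-ITD AML) cells in RPMI 1640 with 10% heat-inactivated FBS were seeded at 25000 cells/well, incubated overnight at 37° C, 5% CO2, then treated with increasing compound concentrations for 72 hours. Viability was read as absorbance at 490 nm after 2˜4 hours with CellTiter96 AQueous One reagent.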

Experiment [3] has as its system THP-1 human acute monocytic leukemia cell with NRAS G12D mutation. Put plainly: THP-1 cell proliferation assay (counter screen). The experiment is classed as cell-based. The conditions noted are these: Homo sapiens, THP-1 cells, 72 hours treatment, CellTiter96, read-out: anti-proliferation activity THP-1 NRAS N12D, IC50 ranking. The gist of the method:
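THP-1 cells (NRAS G12D, growth independent of class III RTK signaling) seeded at 5000 cells/well overnight, then exposed to increasing compound concentrations for 72 h at 37° C, 5% CO2. Viability read by CellTiter96 AQueous One reagent (2–4 h) as absorbance at 490 nm.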
In general terms: Counterscreens check selectivity or assay interference.

For experiment [4], the system named is A375 melanoma cell with BRAF V600E mutation. Put plainly: A375 cell proliferation assay (counter screen). It counts as cell-based, human. The conditions noted are these: Homo sapiens, A-375, A375 cells, 72 hours treatment, CellTiter96, read-out: anti-proliferation activity A375 BRAF V600E, IC50 ranking. The gist of the method: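 A375 cells (BRAF V600E) seeded at 2000 cells/well in DMEM with 10% FBS, settled overnight at 37° C, 5% CO2, then exposed to increasing compound concentrations for 72 hours. Viability read by MTS-type CellTiter96 AQueous reagent, absorbance at 490 nm after 2–4 hours.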

The next experiment concerns the target T1, PDGFRα kinase (Homo sapiens, UniProt P16234).
T1 construct: purchased SignalChem
Put plainly: PDGFRα kinase assay (AlphaScreen). It counts as biochemical. Particulars: read-out: Ranking of IC50 values, PDGFRα. In a few lines: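 Recombinant PDGFRα (1.5 ng) phosphorylated biotinylated poly(Glu4:Tyr1) with 10 μM ATP in MOPS pH 7.0 with 10 mM MgCl2, 30 min at 30 °C, stopped with EDTA. Product detected by AlphaScreen; IC50 from serial dilutions run in duplicate.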
(In Alpha technology, singlet oxygen from a donor bead excites a nearby acceptor bead.)

In a further experiment the target is T2, MET kinase (Homo sapiens, UniProt P08581).
T2 construct: purchased SignalChem
T2 sequence (P08581 25-1390): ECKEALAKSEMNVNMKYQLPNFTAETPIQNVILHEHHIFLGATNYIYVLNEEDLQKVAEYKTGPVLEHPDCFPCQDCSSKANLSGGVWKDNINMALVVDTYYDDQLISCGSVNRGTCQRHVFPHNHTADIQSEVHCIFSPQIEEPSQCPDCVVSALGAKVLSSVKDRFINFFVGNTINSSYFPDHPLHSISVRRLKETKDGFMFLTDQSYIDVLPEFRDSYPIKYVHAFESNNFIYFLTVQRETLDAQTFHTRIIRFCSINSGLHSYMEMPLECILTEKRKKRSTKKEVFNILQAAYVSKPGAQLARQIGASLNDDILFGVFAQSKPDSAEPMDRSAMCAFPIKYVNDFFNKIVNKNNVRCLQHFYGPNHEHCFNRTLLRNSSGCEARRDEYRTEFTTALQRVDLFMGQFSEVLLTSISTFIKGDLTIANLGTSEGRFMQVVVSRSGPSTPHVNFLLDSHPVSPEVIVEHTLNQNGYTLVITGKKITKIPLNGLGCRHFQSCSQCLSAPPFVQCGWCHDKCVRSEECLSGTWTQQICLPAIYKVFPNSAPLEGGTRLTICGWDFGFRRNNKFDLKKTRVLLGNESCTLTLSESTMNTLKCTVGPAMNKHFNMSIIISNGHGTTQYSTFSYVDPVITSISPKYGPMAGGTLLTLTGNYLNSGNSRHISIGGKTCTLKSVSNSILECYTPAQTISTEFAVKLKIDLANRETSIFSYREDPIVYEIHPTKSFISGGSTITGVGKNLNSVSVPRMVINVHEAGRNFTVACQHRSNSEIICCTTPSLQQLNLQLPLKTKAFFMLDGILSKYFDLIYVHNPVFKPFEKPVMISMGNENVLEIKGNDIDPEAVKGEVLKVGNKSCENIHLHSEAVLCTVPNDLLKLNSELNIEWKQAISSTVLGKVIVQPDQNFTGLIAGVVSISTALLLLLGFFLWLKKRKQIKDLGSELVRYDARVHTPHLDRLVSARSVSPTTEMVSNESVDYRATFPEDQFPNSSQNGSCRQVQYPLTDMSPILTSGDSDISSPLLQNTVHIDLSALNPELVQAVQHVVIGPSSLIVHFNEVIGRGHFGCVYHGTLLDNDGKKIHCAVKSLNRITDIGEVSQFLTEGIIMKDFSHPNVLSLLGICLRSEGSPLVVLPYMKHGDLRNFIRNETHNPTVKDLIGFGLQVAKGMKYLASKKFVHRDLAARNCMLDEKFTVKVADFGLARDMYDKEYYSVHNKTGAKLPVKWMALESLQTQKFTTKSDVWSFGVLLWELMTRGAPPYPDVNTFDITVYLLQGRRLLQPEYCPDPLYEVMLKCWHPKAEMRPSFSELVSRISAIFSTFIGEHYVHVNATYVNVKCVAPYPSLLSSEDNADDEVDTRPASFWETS
Put plainly: MET kinase assay (AlphaScreen, counter screen). The experiment is classed as biochemical. The conditions noted are these: read-out: Ranking of IC50 values, MET. The gist of the method: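 Recombinant MET kinase (1 ng) phosphorylated biotinylated poly(Glu4:Tyr1) with […] ATP (so in the source) in MOPS pH 7.0 buffer with 10 mM MgCl2, 45 min at 30 °C, stopped with EDTA. Product read by AlphaScreen; IC50 from serial dilutions run in duplicate.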

Some results are limits rather than exact numbers.

The results in this text go back to patent US12448394B2, “Heterocyclic pyrazole derivatives as type III receptor tyrosine kinase inhibitors” (DEVELOPMENT CENTER FOR BIOTECHNOLOGY, priority 2019, dated 2025).

T1 sequence (P16234 24-1089): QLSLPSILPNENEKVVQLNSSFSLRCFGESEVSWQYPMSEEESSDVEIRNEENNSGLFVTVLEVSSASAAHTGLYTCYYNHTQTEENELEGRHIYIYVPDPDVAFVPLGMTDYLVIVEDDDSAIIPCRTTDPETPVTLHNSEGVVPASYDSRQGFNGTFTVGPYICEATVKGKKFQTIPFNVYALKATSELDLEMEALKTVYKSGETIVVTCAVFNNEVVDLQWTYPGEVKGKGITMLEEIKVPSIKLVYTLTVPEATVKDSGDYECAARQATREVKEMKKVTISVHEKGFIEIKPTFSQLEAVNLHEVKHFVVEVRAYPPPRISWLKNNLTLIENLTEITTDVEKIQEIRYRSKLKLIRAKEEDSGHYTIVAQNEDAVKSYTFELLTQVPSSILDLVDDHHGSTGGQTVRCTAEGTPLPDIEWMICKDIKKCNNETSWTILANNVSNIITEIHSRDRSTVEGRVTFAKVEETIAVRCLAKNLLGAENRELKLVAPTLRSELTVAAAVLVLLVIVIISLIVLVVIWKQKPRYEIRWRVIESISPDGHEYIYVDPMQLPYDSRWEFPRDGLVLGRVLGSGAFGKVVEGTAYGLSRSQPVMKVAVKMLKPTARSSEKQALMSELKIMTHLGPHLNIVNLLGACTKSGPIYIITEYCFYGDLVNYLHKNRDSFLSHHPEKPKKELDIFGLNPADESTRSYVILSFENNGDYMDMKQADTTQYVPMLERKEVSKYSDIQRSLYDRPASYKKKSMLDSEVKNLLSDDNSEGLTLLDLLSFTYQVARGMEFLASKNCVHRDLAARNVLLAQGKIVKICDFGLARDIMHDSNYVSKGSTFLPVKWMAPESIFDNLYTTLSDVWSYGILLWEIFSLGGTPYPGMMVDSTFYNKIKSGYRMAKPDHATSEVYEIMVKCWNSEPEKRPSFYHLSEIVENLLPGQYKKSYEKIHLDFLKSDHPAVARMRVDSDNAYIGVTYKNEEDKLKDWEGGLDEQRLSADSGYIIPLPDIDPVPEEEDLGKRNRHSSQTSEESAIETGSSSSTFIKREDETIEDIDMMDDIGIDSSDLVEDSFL

For `Cn1nnc2ccc(-c3n[nH]c4c3Cc3sc(-c5ccc(CN6CCOCC6)cc5)cc3-4)cc21` [Compound 89, 4-(4-(3-(1-methyl-1H-benzo[d][1,2,3]triazol-6-yl)-1,4-dihydrothieno [2′,3′:4,5]cyclopenta [1,2-c]pyrazol-6-yl)benzyl)morpholine], the IC50 in experiment [1] is over 10000 nM; in experiment [2], 30 to 100 nM; in experiment [3], over 10000 nM; in experiment [4] it was over 10000 nM; on PDGFRα kinase it was 1 to 10 nM; on MET kinase it was over 1000 nM.
On to `CN(C)Cc1ccc(-c2cc3c(s2)Cc2c(-c4ccc5cnn(C)c5c4)n[nH]c2-3)cc1` [Compound 94, N,N-dimethyl-1-(4-(3-(1-methyl-1H-indazol-6-yl)-1,4-dihydrothieno [2′,3′:4,5]cyclopenta [1,2-c]pyrazol-6-yl)phenyl)methanamine], for which the IC50 in experiment [1] is 1000 to 10000 nM; in experiment [2], under 30 nM; in experiment [3], 1000 to 10000 nM; in experiment [4], 1000 to 10000 nM; at PDGFRα kinase it was 1 to 10 nM; on MET kinase, 300 to 1000 nM.
Take `CN1CCN(Cc2ccc(-c3cc4c(s3)Cc3c(-c5ccc6cn[nH]c6c5)n[nH]c3-4)cc2)CC1` [Compound 83, 3-(1H-indazol-6-yl)-6-(4-((4-methylpiperazin-1-yl)methyl)phenyl)-1,4-dihydrothieno[2′,3′:4,5] cyclopenta[1,2-c]pyrazole]: the IC50 in experiment [1] is over 10000 nM; in experiment [2], under 30 nM; in experiment [3] it was over 10000 nM; in experiment [4], over 10000 nM; at PDGFRα kinase it was 1 to 10 nM; on MET kinase, 300 to 1000 nM.
`COc1ccc(-c2cc3c(s2)Cc2c(-c4ccc5[nH]ncc5c4)n[nH]c2-3)cn1` [Compound 1, 3-(1H-indazol-5-yl)-6-(6-methoxypyridin-3-yl)-1,4-dihydrothieno[2′,3′:4,5] cyclopenta[1,2-c]pyrazole]: the IC50 in experiment [1] was over 10000 nM; in experiment [2], 30 to 100 nM; in experiment [3], over 10000 nM; in experiment [4] it was over 10000 nM; at PDGFRα kinase, 10 to 30 nM; at MET kinase it was over 1000 nM.
Regarding `Cn1ncc2ccc(-c3n[nH]c4c3Cc3sc(-c5ccnc(Cl)c5)cc3-4)cc21` [Compound 86, 6-(2-chloropyridin-4-yl)-3-(1-methyl-1H-indazol-6-yl)-1,4-dihydrothieno [2′,3′:4,5]cyclopenta [1,2-c]pyrazole], the IC50 in experiment [1] is over 10000 nM; in experiment [2], 100 to 300 nM; in experiment [3], over 10000 nM; in experiment [4], over 10000 nM; on PDGFRα kinase, 10 to 30 nM; on MET kinase, over 1000 nM.
In the case of `CN1CCN(c2cc(-c3cc4c(s3)Cc3c(-c5ccc6cnn(C)c6c5)n[nH]c3-4)ccn2)CC1` [Compound 87, 3-(1-methyl-1H-indazol-6-yl)-6-(2-(4-methyl-piperazin-1-yl)pyridin-4-yl)-1,4-dihydrothieno [2′,3′:4,5]cyclopenta [1,2-c]pyrazole], the IC50 was over 10000 nM in experiment [1]; 300 to 1000 nM in experiment [2]; over 10000 nM in experiment [3]; over 10000 nM in experiment [4]; 1 to 10 nM on PDGFRα kinase; 300 to 1000 nM on MET kinase.
As for `Cc1ccc(-c2cc3c(s2)Cc2c(-c4ccc5[nH]ncc5c4)n[nH]c2-3)cn1` [Compound 36, 3-(1H-indazol-5-yl)-6-(6-methylpyridin-3-yl)-1,4-dihydrothieno[2′,3′:4,5] cyclopenta[1,2-c]pyrazole], the IC50 was over 10000 nM in experiment [1]; 30 to 100 nM in experiment [2]; over 10000 nM in experiment [3]; over 10000 nM in experiment [4]; 1 to 10 nM at PDGFRα kinase; over 1000 nM at MET kinase.
With `CN(C)Cc1ccc(-c2cc3c(s2)Cc2c(-c4ccc5cnn(C)c5c4)n[nH]c2-3)cn1` [Compound 93, N,N-dimethyl-1-(5-(3-(1-methyl-1H-indazol-6-yl)-1,4-dihydrothieno [2′,3′:4,5]cyclopenta [1,2-c]pyrazol-6-yl)pyridin-2-yl)methanamine], the IC50 is over 10000 nM in experiment [1]; 100 to 300 nM in experiment [2]; over 10000 nM in experiment [3]; over 10000 nM in experiment [4]; 100 to 300 nM on PDGFRα kinase; over 1000 nM on MET kinase.
